The values that follow come from article PMC12297138, “Screening and Identification of Multiple Peptides Homologous to the Fusion Glycoprotein Gc of Schmallenberg Virus Able to Inhibit Viral Infection” (Transboundary and Emerging Diseases, 2025).

In data set [1] the test system is Schmallenberg virus (SBV). The data set can be described thus: Posttreatment assay (plaque reduction). The class given is cell-based. To be noted: BHK-21 cells treated with peptide after SBV infection (MOI 0.01, 2 h 37°C); plaques after 72 h. On the procedure: (§1) Peptide concentrations are the same as used in the initial cotreatment assay. Virus pretreatment assay: peptides were added to the virus (MOI of 0.1) for 1 h at 37°C. Following the incubation period, the mixture of virus and peptide was diluted on cells for 2 h: this process allowed the peptides to achieve a nonactive concentration while ensuring that the virus remained at an optimal final MOI of 0.01. Then, the cells underwent a 72-h incubation with CMC. Cell pretreatment: Precooled cells were treated with the peptides for 1 h, followed by the incubation of the viral inoculum (MOI of 0.01) for 2 hr at 37°C. At the end, cells were overlaid with CMC for 72 hr at 37°C. Posttreatment: Cells were treated with peptide following the viral infection (MOI of 0.01 pfu/mL) for 2 h at 37°C; then, CMC was added for 72 h at 37°C. For each treatment, the IC50, which is the peptide concentration resulting in a 50% reduction of SBV infectivity, was calculated.

For data set [2], the system named is Schmallenberg virus (SBV). The data set can be described thus: Attachment assay (temperature shift). The class given is cell-based. To be noted: for SI, Attachment: selectivity index CC50 value/IC50 value; for IC50: BHK-21 cells, SBV MOI 0.01 and peptide simultaneously 2 h at 4°C, plaques after 72 h at 37°C. Here is the method: (§2) Two additional assays were performed. Peptide concentrations are the same as those used in the other treatments. Attachment assay: Cells were infected with the virus (MOI 0.01) and simultaneously each peptide was inoculated for 2 h at 4°C; then, cells were left in CMC for 72 h at 37°C. Entry assay: BHK-21 monolayer was infected with SBV (MOI 0.01) for 2 h at 4°C, followed by the treatment with each peptide for 1 h at 37°C; finally, CMC was added on cells. Similarly to other assays, at the end, viral plaques were observed.

Data set [3] relates to Schmallenberg virus (SBV). The data set can be described thus: Cotreatment assay (plaque reduction). The format is cell-based. To be noted: for SI, Cotreatment: selectivity index CC50 value/IC50 value; for percentage of viral inhibition at 100 μM (library screening): cotreatment, peptide 100 μM, SBV on BHK-21 cells, threshold 50% inhibition; for IC50: peptide + SBV (MOI 0.01) together on BHK-21 cells 2 h 37°C, plaques after 72 h, triplicate. An excerpt: Baby Hamster Kidney cells (BHK-21) (ATCC CCL-10, Manassas, VA, USA), Madin–Darby bovine kidney (MDBK, ATCC CCL-22), and Vero/hSLAM cells (ECACC 04091501, Porton Down, United Kingdom) were cultivated in Dulbecco's modified Eagle's medium (DMEM, Microtech, Naples, Italy) supplemented with 10% fetal bovine serum (FBS) (Microtech). Viruses were kindly provided by Professor Giuseppe Iovane (University Federico II, Naples, Italy). Cells were infected with a multiplicity of infection (MOI) of 0.01, and we assessed viral titers through plaque assays.
SBV titration was performed on BHK-21 cells. Briefly, BHK-21 cell monolayers in 12-well cell culture plates were infected with SBV dilutions. After 1 h of incubation, viral inocula were removed and a mixture of DMEM 10% FBS and 3% carboxymethyl cellulose (CMC) was added to all wells. After incubation for 72 h, cells were fixed with 4% formaldehyde solution and stained with 0,5% crystal violet (Sigma-Aldrich, St. Louis, MO, USA). Plaques were scored and stock virus titration was calculated as plaque forming unit (PFU)/ml.
Peptides were dissolved in water. To assess the impact of these peptides on inhibiting SBV infectivity, a very general assay (cotreatment) was performed by treating cells (5 × 10^5 cells/well) with peptides at 200, 100, 50, 25, 12.5, 6.25, and 1 μM and incubating them with the viral inoculum (MOI of 0.01) for 2 h at 37°C. To effectively inactivate nonpenetrated viruses, we treated cells with citrate buffer (pH 3.0) and then cultured BHK-21 for 72 h at 37°C/5% CO2 in DMEM enriched with 10% FBS and CMC. The monolayers were finally fixed and stained, and the plaque number was scored. The percentage of inhibition was calculated in comparison to the control group (cell infected and treated with no peptide).

Data set [4] has as its system Schmallenberg virus (SBV). The data set can be described thus: Entry assay (temperature shift). To be noted: for SI, Entry: selectivity index CC50 value/IC50 value; for IC50: BHK-21 infected with SBV MOI 0.01 2 h at 4°C, then peptide 1 h at 37°C, plaque count. The format is cell-based. Here is the method:
as §2

Data set [5] has as its system Schmallenberg virus (SBV). The data set can be described thus: Virus pretreatment assay (plaque reduction). The format is cell-based. The note with it: for SI, Virus pretreatment: selectivity index CC50 value/IC50 value; for IC50: peptide + SBV (MOI 0.1) 1 h 37°C, then diluted on BHK-21 cells (final MOI 0.01), plaques after 72 h. Here is the method:
as §1

The subject of data set [6] is Schmallenberg virus (SBV). The data set can be described thus: Cell pretreatment assay (plaque reduction). The format is cell-based. The note with it: precooled BHK-21 cells treated with peptide 1 h, then SBV MOI 0.01 for 2 h 37°C; plaques after 72 h. On the procedure: as §1
The test system of data set [7] is BHK-21 cells. The data set can be described thus: MTT cytotoxicity assay. The class given is cell-based, Hamster. The note with it: 24 h treatment, peptides 1-200 µM, read at 570 nm, triplicate. On the procedure: Peptide cytotoxicity was measured by 3- (4, 5-dimethylthiazol-2-yl)-2, 5-diphenyltetrazolium bromide (MTT) assay according to manufacturer's instructions (Sigma-Aldrich, St. Louis, Missouri, United States). BHK-21 cells (4 × 10^4 cells/well) were treated with peptides at different concentrations ranging from 1 µM to 200 and, after 24 h, 100 μL of the MTT solution (5 mg/mL) was incubated for 3 h at 37°C. Then, we used DMSO (Sigma Aldrich) to dissolve tetrazolium salts under agitation. Cytotoxicity was analyzed at 570 nm, and cell viability was measured against control cells—those that received no treatment. At the end, the 50% cytotoxic concentration (CC50) was determined using GraphPad Prism software (GraphPad Software, San Diego, CA, USA).

As to `CC[C@H](C)[C@H](NC(=O)CNC(=O)[C@H](CCC(=O)O)NC(=O)[C@H](CCCCN)NC(=O)[C@H](Cc1ccc(O)cc1)NC(=O)[C@@H](NC(=O)[C@H](CCCNC(=N)N)NC(=O)[C@H](CS)NC(=O)[C@H](CC(C)C)NC(=O)[C@H](Cc1c[nH]c2ccccc12)NC(=O)[C@@H](NC(=O)[C@H](CO)NC(=O)[C@H](CS)NC(=O)[C@H](CCCCN)NC(=O)[C@H](CCCCN)NC(=O)[C@H](CC(=O)O)NC(=O)[C@H](Cc1c[nH]cn1)NC(=O)[C@H](CCC(N)=O)NC(=O)[C@H](CCC(=O)O)NC(=O)[C@@H](NC(=O)[C@@H](N)Cc1ccc(O)cc1)[C@@H](C)CC)[C@@H](C)O)C(C)C)C(=O)N[C@@H](CO)C(=O)N[C@H](C(=O)N[C@H](C(=O)N[C@@H](Cc1ccccc1)C(=O)O)[C@@H](C)CC)C(C)C` [Gc59], the IC50 in data set [1] and in data set [6] was greater than 100 µM in each case. Moreover, the “SI, Attachment” value in data set [2] is 3.6. In addition, the “SI, Cotreatment” value in data set [3] was 4. Besides, in data set [4], the “SI, Entry” value was found to be 5.7. The “SI, Virus pretreatment” value in data set [5] came to 5.
As for `CC[C@H](C)[C@H](NC(=O)[C@@H](NC(=O)[C@H](CC(C)C)NC(=O)[C@@H](NC(=O)[C@H](CC(N)=O)NC(=O)[C@H](CC(=O)O)NC(=O)[C@H](CCC(N)=O)NC(=O)[C@H](CCC(=O)O)NC(=O)[C@H](CC(C)C)NC(=O)[C@H](CC(C)C)NC(=O)[C@H](CC(C)C)NC(=O)[C@H](CS)NC(=O)[C@H](CO)NC(=O)[C@H](CCC(N)=O)NC(=O)[C@@H](N)Cc1ccc(O)cc1)[C@@H](C)O)[C@@H](C)O)C(=O)N[C@@H](C)C(=O)N[C@@H](CO)C(=O)N[C@H](C(=O)N[C@@H](CO)C(=O)N[C@@H](Cc1c[nH]cn1)C(=O)N[C@@H](CCSC)C(=O)N[C@@H](CCC(=O)O)C(=O)N[C@H](C(=O)N[C@@H](Cc1c[nH]cn1)C(=O)N[C@@H](CCCCN)C(=O)O)C(C)C)[C@@H](C)O` [Gc49], the IC50 in data set [2] is 25 µM; in data set [3], 10 µM; in data set [4] it was 20 µM; in data set [5] it was 10 µM. Besides, the “percentage of viral inhibition at 100 μM (library screening)” value (“percentage of viral inhibition at 100 μM” below) in data set [3] is given as “greater than 50%”. In data set [7], this compound had a CC50 of 200 µM.
Turning to `CC[C@H](C)[C@H](NC(=O)[C@H](CO)NC(=O)[C@@H](N)Cc1ccc(O)cc1)C(=O)N[C@@H](CCCCN)C(=O)N[C@@H](CC(C)C)C(=O)N[C@@H](CC(N)=O)C(=O)N[C@@H](CS)C(=O)N1CCC[C@H]1C(=O)N[C@@H](CC(C)C)C(=O)N[C@@H](C)C(=O)N[C@H](C(=O)N[C@@H](CCC(=O)O)C(=O)N[C@H](C(=O)N[C@H](C(=O)N[C@@H](CO)C(=O)N[C@H](C(=O)N[C@@H](CO)C(=O)N[C@H](C(=O)N[C@@H](CS)C(=O)N[C@@H](CO)C(=O)N[C@@H](C)C(=O)N[C@@H](CO)C(=O)N[C@@H](C)C(=O)N[C@@H](Cc1ccc(O)cc1)C(=O)N[C@H](C(=O)O)[C@@H](C)O)C(C)C)C(C)C)C(C)C)[C@@H](C)O)[C@@H](C)O` [Gc56], the IC50 in data set [2] came out at 50 µM; in data set [3], 100 µM; in data set [4] it was 40 µM; in data set [5], 40 µM. Besides, the “percentage of viral inhibition at 100 μM” value in data set [3] was “greater than 50%”. For the same compound, the CC50 in data set [7] was 200 µM.
Take `CC[C@H](C)[C@H](NC(=O)[C@@H](NC(=O)[C@H](CC(=O)O)NC(=O)[C@H](CCCCN)NC(=O)[C@H](CCCNC(=N)N)NC(=O)[C@H](CC(N)=O)NC(=O)[C@@H](N)Cc1ccccc1)C(C)C)C(=O)N[C@@H](CC(C)C)C(=O)N[C@@H](CCCNC(=N)N)C(=O)N[C@@H](CCCNC(=N)N)C(=O)N[C@@H](CS)C(=O)N[C@@H](Cc1ccccc1)C(=O)N[C@@H](CC(=O)O)C(=O)N[C@@H](CC(N)=O)C(=O)N[C@@H](CO)C(=O)N[C@@H](Cc1ccc(O)cc1)C(=O)N[C@@H](CCC(N)=O)C(=O)N[C@@H](CO)C(=O)N[C@@H](CS)C(=O)N[C@@H](CC(C)C)C(=O)N[C@@H](CC(C)C)C(=O)N[C@@H](CC(C)C)C(=O)N[C@@H](CCC(=O)O)C(=O)N[C@@H](CCC(N)=O)C(=O)N[C@@H](CC(=O)O)C(=O)O` [Gc48]: the IC50 in data set [1] and in data set [6] was greater than 100 µM in each case. Further, in data set [2], the “SI, Attachment” value is 2. Moreover, the “SI, Cotreatment” value in data set [3] was 2. For the same compound, the “SI, Entry” value in data set [4] is on record as 4. Moreover, in data set [5], the “SI, Virus pretreatment” value is recorded as 4.
In the case of `CC[C@H](C)[C@H](NC(=O)[C@H](CC(=O)O)NC(=O)[C@H](CO)NC(=O)[C@H](CCC(N)=O)NC(=O)[C@H](CC(C)C)NC(=O)[C@H](C)NC(=O)[C@H](C)NC(=O)[C@@H](NC(=O)[C@H](Cc1ccc(O)cc1)NC(=O)[C@H](CC(N)=O)NC(=O)[C@H](CCC(=O)O)NC(=O)[C@@H](NC(=O)[C@H](CC(=O)O)NC(=O)[C@@H]1CCCN1C(=O)[C@H](Cc1c[nH]cn1)NC(=O)[C@@H](N)CC(N)=O)[C@@H](C)CC)[C@@H](C)CC)C(=O)N[C@@H](C)C(=O)N[C@@H](CC(N)=O)C(=O)N[C@@H](CC(=O)O)C(=O)N[C@@H](CC(C)C)C(=O)N[C@H](C(=O)N[C@@H](CCSC)C(=O)N[C@@H](Cc1c[nH]cn1)C(=O)N[C@@H](Cc1ccc(O)cc1)C(=O)N[C@@H](Cc1ccccc1)C(=O)O)[C@@H](C)O` [Gc30], the IC50 in data set [2] came out at 50 µM; in data set [3], 12.5 µM; in data set [4], 20 µM; in data set [5], 20 µM. Besides, the “percentage of viral inhibition at 100 μM” value in data set [3] is on record as “greater than 50%”.
